From the NIST ThermoML archive (doi:10.1016/j.tca.2012.02.012)
Numbers after ± are expanded uncertainties.

Experiments:
[1] = xn = mol fraction of the nth substance listed; details: 1850 K, 101 kPa, Liquid, Knudsen
[2] = excess molar enthalpy (molar enthalpy of mixing); xn = mol fraction of the nth substance listed; details: 1850 K, 101 kPa, Liquid, Knudsen

SMILES: [Pd] [palladium] + [Fe]
- excess molar Gibbs energy ([1]; x2 = 0.5): -1.7232 ± 0.000239 kcal/mol
- excess molar enthalpy ([2]; x2 = 0.5): -5.999 ± 0.0598 kcal/mol

SMILES: [Fe] [iron] + [Au]
- excess molar Gibbs energy ([1]; x1 = 0.5): -0.1819 ± 0.000239 kcal/mol
- excess molar enthalpy ([2]; x1 = 0.5): 1.76 ± 0.0179 kcal/mol
